Patent US20250041294A1, “Synergistic compositions for use in the treatment of cancer” (Sartar Therapeutics Oy, priority 2021, published 2025)

Tested on: GOT3 and SA4 cell lines
Assay: High throughput drug sensitivity and resistance test, average over cell lines (anagrelide combination)
Format: cell-based
Settings: anagrelide combination, average of SA4 and GOT3; aDSS higher than 3.0 = synergy
Procedure: (§1) Cell lines. PDE3A-positive (GIST882, SA4, and GOT3) and PDE3A-negative cell lines (93TT449, 94T778, LPS141, MLS17656-92, MLS402-91, and SW872) were cultured in RPMI Medium 1640 (Gibco) with 5-, 10- or 20% fetal bovine serum (FBS, gibco), 100 U/mL of penicillin, 100 […] and 0.03 mg/mL of L-glutamine (Pen Strep Glut, Gibco, 10378-016) in a humidified, 5% CO2 atmosphere at 37° C.
(§2) High throughput drug sensitivity and resistance test. A sensitivity and resistance of cancer cell lines to 528 compounds were investigated in 9 cell lines (GIST882, SA4, GOT3, 93TT449, 94T778, LPS141, MLS17656-92, MLS402-91, and SW872). In addition, same compounds were investigated together with anagrelide hydrochloride (100 nM) treatment in the PDE3A low expressing cell lines SA4 and GOT3, and with BAY2666605 (40 nM) in all PDE3A-positive cell lines GIST882, SA4 and GOT3. The compounds were dissolved in 100% dimethyl sulfoxide or water and plated in 10-fold dilutions covering a 10,000-fold concentration range on flat clear bottom 384-well microplates as described in detail earlier (Pulkka O P, et al 2019). A cell viability was measured after 72 hours using CellTiter-Glo Cell Viability assay (Promega Inc.) and PHERAstar FS plate reader (BMG Labtech). The data were normalized to negative (0.01% dimethyl sulfoxide only) and positive (100 μmol/L benzethonium chloride) controls.
(§3) A four-parameter logistic dose-response curves were estimated by using the Marquardt-Levenberg algorithm and Breeze analysis platform. Drug responses to the test compounds were measured using the drug sensitivity score (DSS). Drug synergy partners, which were common in investigated cell lines were identified as following: DSS value of a single agent was subtracted from the DSS value of anagrelide-drug combination in single cell lines. […] The analysis was repeated by using BAY2666605 as a PDE3A modulator.

SMILES | Average DSS (aDSS)
CC(C)Oc1ccc(C(=O)N[C@H](CNC(=O)CN(C)C)Cc2ccc(-c3cn4cccc([C@H](C)O)c4n3)cc2)cc1Cl [GSK923295] | 3.35
CC(C)[C@@H](CS(=O)(=O)C(C)C)N1C(=O)[C@@](C)(CC(=O)O)C[C@H](c2cccc(Cl)c2)[C@H]1c1ccc(Cl)cc1 [AMG-232] | 3.1
CN(C)C[C@@H]1CCn2cc(c3ccccc32)C2=C(C(=O)NC2=O)c2cn(c3ccccc23)CCO1 [Ruboxistaurin] | 3.3
CC(C)[C@H](C(=O)Nc1ccc(C(=O)NO)cc1)c1ccccc1 [AR-42] | 6.05
CO[C@@H]1[C@H](N(C)C(=O)c2ccccc2)C[C@H]2O[C@]1(C)n1c3ccccc3c3c4c(c5c6ccccc6n2c5c31)C(=O)NC4 [Midostaurin, midostaurin] | 3.7
CCN(CCO)CCCOc1ccc2c(Nc3cc(CC(=O)Nc4cccc(F)c4)[nH]n3)ncnc2c1 [AZD1152-HQPA] | 4.65
CC1(C)OCCn2c1nc1c(N3CCOCC3)nc(-c3cnc(N)nc3)nc12 [GDC-0084] | 3.1

Tested on: GIST882 cell line
Assay: High throughput drug sensitivity and resistance test (CellTiter-Glo, 72 hours)
Format: cell-based
Settings: drug combined with BAY2666605 (40 nM) minus drug alone
Procedure: High throughput drug sensitivity and resistance test. […] In addition, same compounds were investigated together with anagrelide hydrochloride (100 nM) treatment in the PDE3A low expressing cell lines SA4 and GOT3, and with BAY2666605 (40 nM) in all PDE3A-positive cell lines GIST882, SA4 and GOT3. […] A cell viability was measured after 72 hours using CellTiter-Glo Cell Viability assay (Promega Inc.) and PHERAstar FS plate reader (BMG Labtech). The data were normalized to negative (0.01% dimethyl sulfoxide only) and positive (100 μmol/L benzethonium chloride) controls.
as §3

SMILES | GIST882 cell line: DSS(combo (BAY2666605))-DSS(drug)
COc1ncc(-c2ccc3nccc(-c4ccnnc4)c3c2)cc1NS(=O)(=O)c1ccc(F)cc1F [Omipalisib, omipalisib] | 7.4
Cn1c(=O)n(-c2ccc(C(C)(C)C#N)cc2)c2c3cc(-c4cnc5ccccc5c4)ccc3ncc21 [Dactolisib, dactolisib] | 3.1

Tested on: GIST882, GOT3 and SA4 cell lines
Assay: High throughput drug sensitivity and resistance test, average over cell lines (BAY2666605 combination)
Format: cell-based
Settings: BAY2666605 combination, average of GIST882, SA4 and GOT3; aDSS higher than 3.0 = synergy
Procedure: as §1, §2, §3

SMILES | Average DSS (aDSS)
COc1ncc(-c2ccc3nccc(-c4ccnnc4)c3c2)cc1NS(=O)(=O)c1ccc(F)cc1F [Omipalisib, omipalisib] | 4.5
Cn1c(=O)n(-c2ccc(C(C)(C)C#N)cc2)c2c3cc(-c4cnc5ccccc5c4)ccc3ncc21 [Dactolisib, dactolisib] | 5.3

Same assay, conditions: with anagrelide (GOT3, SA4) or BAY2666605 (GIST882, GOT3, SA4)

SMILES | synergy in high-throughput screening (in words)
COc1ncc(-c2ccc3nccc(-c4ccnnc4)c3c2)cc1NS(=O)(=O)c1ccc(F)cc1F [Omipalisib, omipalisib] | synergistic
Cn1c(=O)n(-c2ccc(C(C)(C)C#N)cc2)c2c3cc(-c4cnc5ccccc5c4)ccc3ncc21 [Dactolisib, dactolisib] | synergistic
CC(C)Oc1ccc(C(=O)N[C@H](CNC(=O)CN(C)C)Cc2ccc(-c3cn4cccc([C@H](C)O)c4n3)cc2)cc1Cl [GSK923295] | synergistic
CC(C)[C@@H](CS(=O)(=O)C(C)C)N1C(=O)[C@@](C)(CC(=O)O)C[C@H](c2cccc(Cl)c2)[C@H]1c1ccc(Cl)cc1 [AMG-232] | synergistic
CN(C)C[C@@H]1CCn2cc(c3ccccc32)C2=C(C(=O)NC2=O)c2cn(c3ccccc23)CCO1 [Ruboxistaurin] | synergistic
CC(C)[C@H](C(=O)Nc1ccc(C(=O)NO)cc1)c1ccccc1 [AR-42] | synergistic
CCN(CCO)CCCOc1ccc2c(Nc3cc(CC(=O)Nc4cccc(F)c4)[nH]n3)ncnc2c1 [AZD1152-HQPA] | synergistic
CC1(C)OCCn2c1nc1c(N3CCOCC3)nc(-c3cnc(N)nc3)nc12 [GDC-0084] | synergistic

Tested on: SA4 cell line
Assay: High throughput drug sensitivity and resistance test (CellTiter-Glo, 72 hours)
Format: cell-based
Settings: Anagrelide alone, SA4
Procedure: as §1, §2, §3

SMILES | DSS (drug sensitivity score)
O=C1CN2Cc3c(ccc(Cl)c3Cl)N=C2N1 [Anagrelide, anagrelide] | 15.4

Same assay, conditions: Anagrelide alone, SA4, cell viability 72 hours

SMILES | IC50 [nM]
O=C1CN2Cc3c(ccc(Cl)c3Cl)N=C2N1 [Anagrelide, anagrelide] | 73.5

Same assay, conditions: drug combined with BAY2666605 (40 nM) minus drug alone, SA4

SMILES | SA4 cell line: DSS(combo (BAY2666605))-DSS(drug)
COc1ncc(-c2ccc3nccc(-c4ccnnc4)c3c2)cc1NS(=O)(=O)c1ccc(F)cc1F [Omipalisib, omipalisib] | 6.5
Cn1c(=O)n(-c2ccc(C(C)(C)C#N)cc2)c2c3cc(-c4cnc5ccccc5c4)ccc3ncc21 [Dactolisib, dactolisib] | 4.6

Same assay, conditions: drug combined with anagrelide hydrochloride (100 nM) minus drug alone, SA4

SMILES | SA4 cell line: DSS(combo (anagrelide))-DSS(drug)
C/C=C1\NC(=O)[C@H]2CSSCC/C=C/[C@H](CC(=O)N[C@H](C(C)C)C(=O)N2)OC(=O)[C@H](C(C)C)NC1=O [Romidepsin, romidepsin] | 6.3
CC(C)Oc1ccc(C(=O)N[C@H](CNC(=O)CN(C)C)Cc2ccc(-c3cn4cccc([C@H](C)O)c4n3)cc2)cc1Cl [GSK923295] | 3.9
CC(C)[C@@H](CS(=O)(=O)C(C)C)N1C(=O)[C@@](C)(CC(=O)O)C[C@H](c2cccc(Cl)c2)[C@H]1c1ccc(Cl)cc1 [AMG-232] | 6.2
CN(C)C[C@@H]1CCn2cc(c3ccccc32)C2=C(C(=O)NC2=O)c2cn(c3ccccc23)CCO1 [Ruboxistaurin] | 4.8
CC(C)[C@H](C(=O)Nc1ccc(C(=O)NO)cc1)c1ccccc1 [AR-42] | 12.9
CO[C@@H]1[C@H](N(C)C(=O)c2ccccc2)C[C@H]2O[C@]1(C)n1c3ccccc3c3c4c(c5c6ccccc6n2c5c31)C(=O)NC4 [Midostaurin, midostaurin] | 5.1
CCN(CCO)CCCOc1ccc2c(Nc3cc(CC(=O)Nc4cccc(F)c4)[nH]n3)ncnc2c1 [AZD1152-HQPA] | 5.9
CC1(C)OCCn2c1nc1c(N3CCOCC3)nc(-c3cnc(N)nc3)nc12 [GDC-0084] | 3.9

Tested on: GOT3 cell line
Assay: as above
Format: cell-based
Settings: Anagrelide alone, GOT3
Procedure: as §1, §2, §3

SMILES | DSS (drug sensitivity score)
O=C1CN2Cc3c(ccc(Cl)c3Cl)N=C2N1 [Anagrelide, anagrelide] | 9.2

Same assay, conditions: Anagrelide alone, GOT3, cell viability 72 hours

SMILES | IC50 [nM]
O=C1CN2Cc3c(ccc(Cl)c3Cl)N=C2N1 [Anagrelide, anagrelide] | 84.3

Same assay, conditions: drug combined with BAY2666605 (40 nM) minus drug alone, GOT3

SMILES | GOT3 cell line: DSS(combo (BAY2666605))-DSS(drug)
COc1ncc(-c2ccc3nccc(-c4ccnnc4)c3c2)cc1NS(=O)(=O)c1ccc(F)cc1F [Omipalisib, omipalisib] | −0.4
Cn1c(=O)n(-c2ccc(C(C)(C)C#N)cc2)c2c3cc(-c4cnc5ccccc5c4)ccc3ncc21 [Dactolisib, dactolisib] | 8.2

Same assay, conditions: drug combined with anagrelide hydrochloride (100 nM) minus drug alone, GOT3

SMILES | GOT3 cell line: DSS(combo (anagrelide))-DSS(drug)
C/C=C1\NC(=O)[C@H]2CSSCC/C=C/[C@H](CC(=O)N[C@H](C(C)C)C(=O)N2)OC(=O)[C@H](C(C)C)NC1=O [Romidepsin, romidepsin] | 1.4
CC(C)Oc1ccc(C(=O)N[C@H](CNC(=O)CN(C)C)Cc2ccc(-c3cn4cccc([C@H](C)O)c4n3)cc2)cc1Cl [GSK923295] | 2.8
CC(C)[C@@H](CS(=O)(=O)C(C)C)N1C(=O)[C@@](C)(CC(=O)O)C[C@H](c2cccc(Cl)c2)[C@H]1c1ccc(Cl)cc1 [AMG-232] | 0
CN(C)C[C@@H]1CCn2cc(c3ccccc32)C2=C(C(=O)NC2=O)c2cn(c3ccccc23)CCO1 [Ruboxistaurin] | 1.8
CC(C)[C@H](C(=O)Nc1ccc(C(=O)NO)cc1)c1ccccc1 [AR-42] | −0.8
CO[C@@H]1[C@H](N(C)C(=O)c2ccccc2)C[C@H]2O[C@]1(C)n1c3ccccc3c3c4c(c5c6ccccc6n2c5c31)C(=O)NC4 [Midostaurin, midostaurin] | 2.3
CCN(CCO)CCCOc1ccc2c(Nc3cc(CC(=O)Nc4cccc(F)c4)[nH]n3)ncnc2c1 [AZD1152-HQPA] | 3.4
CC1(C)OCCn2c1nc1c(N3CCOCC3)nc(-c3cnc(N)nc3)nc12 [GDC-0084] | 2.3
